How the values were obtained:
[1] = molecular target: Sigma non-opioid intracellular receptor 1 (Homo sapiens, UniProt Q99720); experiment: Binding affinity towards sigma receptor using [3H](+)-SKF-10047 as radioligand
[2] = In vivo potency was determined in anti-mescaline scratch assay(peroral administration); assay type: functional, organism-based
D(2) dopamine receptor = D(2) dopamine receptor (Homo sapiens, UniProt P14416); experiment: Binding affinity towards Dopamine receptor D2 using [3H]spiperone as radioligand
D(2) dopamine receptor, sequence (P14416 whole entry): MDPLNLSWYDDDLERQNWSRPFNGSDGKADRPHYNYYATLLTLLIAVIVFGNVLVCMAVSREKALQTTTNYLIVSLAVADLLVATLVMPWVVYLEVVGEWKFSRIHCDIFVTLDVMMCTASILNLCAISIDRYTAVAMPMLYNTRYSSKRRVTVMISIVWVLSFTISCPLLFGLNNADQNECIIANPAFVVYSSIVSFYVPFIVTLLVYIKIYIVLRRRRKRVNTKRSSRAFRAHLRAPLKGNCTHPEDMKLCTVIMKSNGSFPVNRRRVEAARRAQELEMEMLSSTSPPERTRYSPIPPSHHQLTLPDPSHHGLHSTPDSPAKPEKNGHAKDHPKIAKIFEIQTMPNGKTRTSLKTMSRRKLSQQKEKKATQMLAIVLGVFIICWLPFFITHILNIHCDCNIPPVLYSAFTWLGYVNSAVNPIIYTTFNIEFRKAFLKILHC

[3] = molecular target: Serotonin 2 (5-HT2) receptor (Homo sapiens, UniProt P41595+P28223+P28335); experiment: Binding affinity towards 5-HT2 receptor using [3H]ketanserin as radioligand; assay type: protein assay

Sigma non-opioid intracellular receptor 1, sequence (Q99720 whole entry): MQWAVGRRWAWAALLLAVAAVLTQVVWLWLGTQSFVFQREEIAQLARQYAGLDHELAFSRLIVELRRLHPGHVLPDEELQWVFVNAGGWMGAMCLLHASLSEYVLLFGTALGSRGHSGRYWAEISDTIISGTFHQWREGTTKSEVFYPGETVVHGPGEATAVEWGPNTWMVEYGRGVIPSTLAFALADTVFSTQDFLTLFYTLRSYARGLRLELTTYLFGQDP

Row | Ki [1] [nM] | ED50 [2] [mg/kg] | Ki (D(2) dopamine receptor) [nM] | Ki [3] [nM] | SMILES
1 | 7 | 4.1 | 131 | 21 | C(#Cc1ccccc1)COCCC1CCN(CCc2ccccc2)CC1
2 | 212 | – | > 10000 | 547 | C(/C=C/c1ccccc1)=C\OCC1CCN(Cc2ccccc2)CC1
3 | 22 | > 30 | 620 | 29 | C(COCC1CCN(Cc2ccccc2)CC1)=C(c1ccccc1)c1ccccc1
4 | 2 | > 10 | 1060 | 81 | Fc1ccc(C#CCOCCC2CCN(CCc3ccccc3)CC2)cc1
5 | 7 | 6 | > 10000 | 44 | C(=C\c1ccccc1)/COCC1CCN(Cc2ccccc2)CC1
6 | 8 | > 10 | > 10000 | 284 | C(=C\c1ccccc1)/COCC1CCN(Cc2cccc3ccccc23)CC1
7 | 28 | > 10 | 4320 | 324 | FC(F)(F)c1ccc(/C=C/COCC2CCN(Cc3ccccc3)CC2)cc1
8 | 8 | > 30 | > 10000 | 650 | C/C=C/CN1CCC(COC/C=C/c2ccccc2)CC1
9 | 18 | 9 | 948 | 283 | C(=C\c1ccccc1)/COCC1CCN(CCCc2ccccc2)CC1
10 | 4 | > 10 | 1360 | 72 | C(#Cc1ccccc1)COC1CCN(CCc2ccccc2)CC1
11 | 12 | 8 | 2180 | 31 | Fc1ccc(/C=C/COCC2CCN(Cc3ccccc3)CC2)cc1
12 | 4 | > 30 | > 10000 | 254 | C(#Cc1ccccc1)COCC1CCN(Cc2ccccc2)CC1
13 | 1 | > 10 | > 10000 | 947 | C(#Cc1ccccc1)COCCC1CCN(CC2CC2)CC1
14 | 5 | > 5 | 241 | 250 | C(=C\c1ccccc1)/COCC1CCN(CCc2ccccc2)CC1
15 | 90 | – | > 10000 | > 10000 | C(=C/c1ccccc1)/COCC1CCN(Cc2ccccc2)CC1
16 | 5 | > 30 | > 10000 | 1847 | C(=C\c1ccccc1)/COCC1CCN(CC2CC2)CC1
17 | 27 | > 30 | 554 | 180 | c1ccc(CCCOCC2CCN(Cc3ccccc3)CC2)cc1
18 | 18 | 3.6 | 1840 | 85 | Fc1ccc(CCN2CCC(CCOCC#Cc3ccccc3)CC2)cc1

Reference: ChEMBL document CHEMBL1127981, “Novel ether derivatives of alkyl piperidines as potential sigma / 5HT2 antipsychotic agents” (Bioorg Med Chem Lett, 1994)
